Source: patent US9512107B2, “Therapeutically active compositions and their methods of use” (Agios Pharmaceuticals, Inc., priority 2012, dated 2016)
Numbering of substitutions follows the chain as printed.

Columns and labels:
[1] = target: T1, IDH2 R140Q (Homo sapiens, UniProt P48735, R140Q); assay: IDH2 R140Q enzymatic assay (cofactor depletion, similar format); format: biochemical; conditions: read-out: Enz R140Q
T1 sequence (P48735 40-452 R140Q): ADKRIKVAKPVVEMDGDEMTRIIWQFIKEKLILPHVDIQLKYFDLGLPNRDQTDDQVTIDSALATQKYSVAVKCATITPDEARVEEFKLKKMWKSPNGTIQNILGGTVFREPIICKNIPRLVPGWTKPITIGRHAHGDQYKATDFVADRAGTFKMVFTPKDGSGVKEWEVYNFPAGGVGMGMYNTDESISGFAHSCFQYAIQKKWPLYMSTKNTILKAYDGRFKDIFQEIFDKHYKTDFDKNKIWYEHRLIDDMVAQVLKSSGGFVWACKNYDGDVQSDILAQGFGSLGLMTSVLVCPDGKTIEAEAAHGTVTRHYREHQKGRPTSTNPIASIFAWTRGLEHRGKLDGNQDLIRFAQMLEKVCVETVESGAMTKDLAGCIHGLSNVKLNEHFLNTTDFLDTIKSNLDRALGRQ

[2] = target: T2, IDH2 R172K (Homo sapiens, UniProt P48735, R172K); assay: IDH2 R172K enzymatic assay (NADPH cofactor depletion, diaphorase/resazurin readout); format: biochemical; conditions: read-out: Enz R172K
T2 sequence (P48735 40-452 R172K): T1 sequence (P48735 40-452 R140Q) with Q101R, R133K
Procedure, shortened: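 Compound was preincubated with IDH2 R172K for 1 h at room temperature, then the reaction was started with substrate mix containing 50 μM NADPH and 6.3 mM α-KG. After another 1 h at room temperature, stop mix with diaphorase and resazurin consumed the remaining NADPH, and resorufin fluorescence was read.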

[3] = tested on: U87MG pLVX-IDH2 R140Q-neo cells; assay: U87MG pLVX-IDH2 R140Q-neo cell based assay, 2-HG in media by LC-MS at 48 hours; conditions: Homo sapiens, U-87 MG
Procedure, shortened: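 U87MG cells stably expressing IDH2 R140Q were seeded overnight, then exposed to compound at 0.2% final DMSO at 37 °C, 5% CO2. 2-HG in the medium was quantified by LC-MS at 48 h. Growth inhibition was read by CellTiter-Glo luminescence at 72 h.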

Row | IC50 [1] | IC50 [2] | IC50 [3] | Compound
1 | 100 to 1000 nM | < 100 nM | < 100 nM | CC(C)Nc1nc(Nc2ccnc(C(F)F)c2)nc(-c2cccc(C(F)F)n2)n1 [Compound 673, 6-(6-Difluoromethyl-pyridin-2-yl)-N-(2-difluoromethyl-pyridin-4-yl)-N′-isopropyl-[1,3,5]triazine-2,4-diamine]
2 | 100 to 1000 nM | 100 to 1000 nM | < 100 nM | CC(C)Nc1nc(Nc2ccnc(C3(O)CC3)c2)nc(-c2cccc(C(F)(F)F)n2)n1 [Compound 674, 1-{4-[4-Isopropylamino-6-(6-trifluoromethyl-pyridin-2-yl)-[1,3,5]triazin-2-ylamino]-pyridin-2-yl}-cyclopropanol]
3 | 100 to 1000 nM | < 100 nM | < 100 nM | CC(C)Nc1nc(Nc2ccnc(C(F)F)c2)nc(-c2cccc(C(C)(F)F)n2)n1 [Compound 675, 6-[6-(1,1-Difluoro-ethyl)-pyridin-2-yl]-N-(2-difluoromethyl-pyridin-4-yl)-N′-isopropyl-[1,3,5]triazine-2,4-diamine]
4 | 100 to 1000 nM | < 100 nM | < 100 nM | CC(C)Nc1nc(Nc2ccnc(CF)c2)nc(-c2cccc(C(F)(F)F)n2)n1 [Compound 676, N-(2-Fluoromethyl-pyridin-4-yl)-N′-isopropyl-6-(6-trifluoromethyl-pyridin-2-yl)-[1,3,5]triazine-2,4-diamine]
5 | 100 to 1000 nM | < 100 nM | < 100 nM | CC(C)Nc1nc(Nc2ccnc(C(C)(C)C#N)c2)nc(-c2cccc(C(C)(F)F)n2)n1 [Compound 677, 2-(4-{4-[6-(1,1-Difluoro-ethyl)-pyridin-2-yl]-6-isopropylamino-[1,3,5]triazin-2-ylamino}-pyridin-2-yl)-2-methyl-propionitrile]
6 | 1000 to 10000 nM | 100 to 1000 nM | < 100 nM | CC(C)(O)CNc1nc(Nc2ccnc(C(C)(C)C#N)c2)nc(-c2cccc(C(F)(F)F)n2)n1 [Compound 678, 2-{4-[4-(2-Hydroxy-2-methyl-propylamino)-6-(6-trifluoromethyl-pyridin-2-yl)-[1,3,5]triazin-2-ylamino]-pyridin-2-yl}-2-methyl-propionitrile]
7 | 100 to 1000 nM | > 10000 nM | 100 to 1000 nM | COC(=O)Nc1cccc(-c2nc(Nc3ccnc(C(F)(F)F)c3)nc(NC(C)C)n2)n1 [Compound 679, Methyl(6-(4-(isopropylamino)-6-((2-(trifluoromethyl)pyridin-4-yl)amino)-1,3,5-triazin-2-yl)pyridin-2-yl)carbamate]
8 | 100 to 1000 nM | < 100 nM | < 100 nM | CC(C)Nc1nc(Nc2ccnc(C(F)(F)F)c2)nc(-c2cccc(N)n2)n1 [Compound 687, 6-(6-aminopyridin-2-yl)-N2-isopropyl-N4-(2-(trifluoromethyl)pyridin-4-yl)-1,3,5-triazine-2,4-diamine]
9 | 100 to 1000 nM | < 100 nM | < 100 nM | CC(C)(C)CNc1nc(Nc2ccnc(C(F)(F)F)c2)nc(-c2cccc(N)n2)n1 [Compound 689, 6-(6-aminopyridin-2-yl)-N2-neopentyl-N4-(2-(trifluoromethyl)pyridin-4-yl)-1,3,5-triazine-2,4-diamine]
10 | 100 to 1000 nM | < 100 nM | < 100 nM | CC(C)CNc1nc(Nc2ccnc(C(F)(F)F)c2)nc(-c2cccc(N)n2)n1 [Compound 690, 6-(6-aminopyridin-2-yl)-N2-isobutyl-N4-(2-(trifluoromethyl)pyridin-4-yl)-1,3,5-triazine-2,4-diamine]
11 | 100 to 1000 nM | 100 to 1000 nM | < 100 nM | CC(C)(O)CNc1nc(Nc2cc(F)cc(F)c2)nc(-c2cccc(N)n2)n1 [Compound 691, 1-(4-(6-aminopyridin-2-yl)-6-(3,5-difluorophenylamino)-1,3,5-triazin-2-ylamino)-2-methylpropan-2-ol]
12 | 100 to 1000 nM | < 100 nM | < 100 nM | CC1(Nc2nc(Nc3ccnc(C(F)(F)F)c3)nc(-c3cccc(N)n3)n2)CC1 [Compound 692, 6-(6-aminopyridin-2-yl)-N2-(1-methylcyclopropyl)-N4-(2-(trifluoromethyl)pyridin-4-yl)-1,3,5-triazine-2,4-diamine]
13 | 100 to 1000 nM | < 100 nM | < 100 nM | CC1(Nc2nc(Nc3cc(F)cc(F)c3)nc(-c3cccc(N)n3)n2)CC1 [Compound 693, 6-(6-aminopyridin-2-yl)-N2-(3,5-difluorophenyl)-N4-(1-methylcyclopropyl)-1,3,5-triazine-2,4-diamine]

More lines, now with the values behind:

Row | Compound | IC50 [1] | IC50 [2] | IC50 [3]
14 | CC(C)Nc1nc(Nc2ccnc(C(F)(F)F)c2)nc(-c2cccc(C(O)C(F)(F)F)c2)n1 (stereo not drawn) [Compound 652, 2,2,2-trifluoro-1-(3-(4-(isopropylamino)-6-((2-(trifluoromethyl)pyridin-4-yl)amino)-1,3,5-triazin-2-yl)phenyl)ethanol] | 100 to 1000 nM | 100 to 1000 nM | 100 to 1000 nM
15 | CC(C)Nc1nc(Nc2ccnc(C(F)(F)F)c2)nc(-c2cccc([S+](C)[O-])c2)n1 (stereo not drawn) [Compound 653, N-Isopropyl-6-(3-methanesulfinyl-phenyl)-N′-(2-trifluoromethyl-pyridin-4-yl)-[1,3,5]triazine-2,4-diamine] | 100 to 1000 nM | 100 to 1000 nM | < 100 nM
16 | CC(C)Nc1nc(Nc2ccnc(C(F)(F)F)c2)nc(-c2cccc(CN)c2)n1 [Compound 654, 6-(3-(aminomethyl)phenyl)-N2-isopropyl-N4-(2-(trifluoromethyl)pyridin-4-yl)-1,3,5-triazine-2,4-diamine] | 100 to 1000 nM | > 10000 nM | < 100 nM
17 | COc1cc(Cl)cc(-c2nc(Nc3ccnc(C(F)(F)F)c3)nc(NC(C)C)n2)c1 [Compound 655, 6-(3-chloro-5-methoxyphenyl)-N2-isopropyl-N4-(2-(trifluoromethyl)pyridin-4-yl)-1,3,5-triazine-2,4-diamine] | 100 to 1000 nM | 100 to 1000 nM | 100 to 1000 nM
18 | CC(C)Nc1nc(Nc2ccnc(C(F)(F)F)c2)nc(-c2cccc(S(C)(=O)=O)c2)n1 [Compound 657, N-Isopropyl-6-(3-methanesulfonyl-phenyl)-N′-(2-trifluoromethyl-pyridin-4-yl)-[1,3,5]triazine-2,4-diamine] | 100 to 1000 nM | 100 to 1000 nM | < 100 nM
19 | CC(C)Nc1nc(Nc2ccnc(C(F)(F)F)c2)nc(-c2cc(O)cc(F)c2)n1 [Compound 658, 3-Fluoro-5-[4-isopropylamino-6-(2-trifluoromethyl-pyridin-4-ylamino)-[1,3,5]triazin-2-yl]-phenol] | 100 to 1000 nM | < 100 nM | < 100 nM
20 | CC(C)(C)OC(=O)N1CCC(Nc2nc(Nc3ccccc3)nc(-c3ccccc3)n2)CC1 [Compound 667, 4-(4-Phenyl-6-phenylamino-[1,3,5]triazin-2-ylamino)-piperidine-1-carboxylic acid tert-butyl ester] | 100 to 1000 nM | 100 to 1000 nM | 100 to 1000 nM
21 | CC(C)Nc1nc(Nc2ccnc(C3(C#N)CC3)c2)nc(-c2cccc(C(F)(F)F)n2)n1 [Compound 669, 1-{4-[4-Isopropylamino-6-(6-trifluoromethyl-pyridin-2-yl)-[1,3,5]triazin-2-ylamino]-pyridin-2-yl}-cyclopropanecarbonitrile] | 100 to 1000 nM | < 100 nM | < 100 nM
22 | CC(C)(O)CNc1nc(Nc2cnc(F)c(Cl)c2)nc(-c2cccc(C(F)(F)F)n2)n1 [Compound 670, 1-[4-(5-Chloro-6-fluoro-pyridin-3-ylamino)-6-(6-trifluoromethyl-pyridin-2-yl)-[1,3,5]triazin-2-ylamino]-2-methyl-propan-2-ol] | 100 to 1000 nM | 100 to 1000 nM | < 100 nM
23 | CC(C)Nc1nc(Nc2ccnc(C(C)(C)C#N)c2)nc(-c2cccc(C(F)(F)F)n2)n1 [Compound 671, 2-{4-[4-Isopropylamino-6-(6-trifluoromethyl-pyridin-2-yl)-[1,3,5]triazin-2-ylamino]-pyridin-2-yl}-2-methyl-propionitrile] | 100 to 1000 nM | < 100 nM | < 100 nM
24 | CC(C)Nc1nc(Nc2ccnc(CC#N)c2)nc(-c2cccc(C(F)(F)F)n2)n1 [Compound 672, {4-[4-Isopropylamino-6-(6-trifluoromethyl-pyridin-2-yl)-[1,3,5]triazin-2-ylamino]-pyridin-2-yl}-acetonitrile] | 100 to 1000 nM | 100 to 1000 nM | < 100 nM
